One data set addresses T1, rat NHE-3 (Rattus norvegicus, UniProt P26433).
T1 construct: expressed in transfected cells; host or cells: Opossum kidney (OK) cells (ATCC), electroporated
Briefly: Cell-based assay of NHE-3 activity (Pharmacological Test Example 1). As to conditions: OK cells expressing rat NHE-3, 0-30 uM test compound, 5 uM EIPA. How it is done: Rat NHE-3-mediated Na^+-dependent H^+ antiport was measured using a modification of the pH sensitive dye method originally reported by Tsien (Proc. Natl. Acad. Sci. USA. (1984) 81(23): 7436-7440). Opossum kidney (OK) cells were obtained from the ATCC and propagated per their instructions. The rat NHE-3 gene was introduced into OK cells via electroporation, seeded into 96 well plates and grown overnight. Medium was aspirated from the wells, cells were washed twice with NaCl-HEPES buffer (100 mM NaCl, 50 mM HEPES, 10 mM glucose, 5 mM KCl, 2 mM CaCl2, 1 mM MgCl2, pH 7.4), then incubated for 30 min at room temperature with NH4Cl-HEPES buffer (20 mM NH4Cl, 80 mM NaCl, 50 mM HEPES, 5 mM KCl, 2 mM CaCl2), 1 mM MgCl2, pH 7.4) containing 5 uM BCECF-AM (Invitrogen). Cells were washed twice with Ammonium free, Nat-free HEPES (100 mM choline, 50 mM HEPES, 10 mM glucose, 5 mM KCl, 2 mM CaCl2), 1 mM MgCl2, pH 7.4) and incubated in the same buffer for 10 minutes at room temperature to lower intracellular pH. […] Initial rates were plotted as the average 3-6 replicates, and pIC50 values were estimated using GraphPad Prism.

Data set [1] in a line: Determination of compound Cmax and AUC. The class given is in vivo. As to conditions: rat; Sprague-Dawley rats, oral gavage, serum 0.5-4 h; actual oral dose (mg/kg) given. On the procedure: Sprague-Dawley rats were orally gavaged with test article (2.5 mg/kg) and serum was collected at 0.5, 1, 2 and 4 h. Serum samples were treated with acetonitrile, precipitated proteins removed by centrifugation and supernatants analyzed by LC/MS/MS and compared against a standard curve to determine compound concentration. All compounds were orally dosed at the dosage shown, and pharmacokinetic parameters determined as described in the text.

A value given as a limit tells only on which side of the number the result lay.

T1 sequence (P26433 29-831): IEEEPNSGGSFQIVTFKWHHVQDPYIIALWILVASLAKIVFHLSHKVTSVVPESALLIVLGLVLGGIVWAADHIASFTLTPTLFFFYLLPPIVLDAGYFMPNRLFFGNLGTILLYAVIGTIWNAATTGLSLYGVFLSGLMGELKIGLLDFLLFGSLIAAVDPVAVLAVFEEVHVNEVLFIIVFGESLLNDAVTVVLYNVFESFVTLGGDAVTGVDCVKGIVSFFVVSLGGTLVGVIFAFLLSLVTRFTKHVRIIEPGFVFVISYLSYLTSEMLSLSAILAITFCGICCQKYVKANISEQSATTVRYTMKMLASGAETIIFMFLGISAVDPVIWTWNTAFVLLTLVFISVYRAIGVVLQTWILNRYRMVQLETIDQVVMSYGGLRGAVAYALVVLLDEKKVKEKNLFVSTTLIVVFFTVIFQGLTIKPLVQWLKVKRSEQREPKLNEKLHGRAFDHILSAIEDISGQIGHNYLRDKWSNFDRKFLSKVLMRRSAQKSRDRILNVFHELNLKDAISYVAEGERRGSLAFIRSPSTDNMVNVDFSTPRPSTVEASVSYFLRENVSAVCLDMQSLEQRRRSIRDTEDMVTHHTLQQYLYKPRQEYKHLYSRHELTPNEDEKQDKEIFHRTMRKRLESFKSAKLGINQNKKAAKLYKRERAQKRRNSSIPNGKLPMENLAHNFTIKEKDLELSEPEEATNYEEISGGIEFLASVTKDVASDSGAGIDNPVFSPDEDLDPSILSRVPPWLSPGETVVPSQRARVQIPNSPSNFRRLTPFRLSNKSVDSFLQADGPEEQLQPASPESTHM

With `NC(N)=NCCCN1CCN(c2cccc(-c3nc(N=C(N)N)nc4ccc(Cl)cc34)c2)CC1` [Example 67, 2-(4-(3-(4-(3-guanidinopropyl)piperazin-1-yl)phenyl)-6-chloroquinazolin-2-yl)guanidine], the “rat NHE-3 Average pIC50” value at rat NHE-3 lay in the range of 6 to 7.
Broadly, the AUC is the area under the concentration-time curve, a measure of exposure. The low end stands for low exposure, the high end for high exposure. What is called Cmax is the peak of the concentration-time curve. In data set [1], `CN1Cc2c(Cl)cc(Cl)cc2C(c2cccc(S(=O)(=O)NCCOCCOCCOCCNC(=O)CCC(=O)NCCOCCOCCOCCNS(=O)(=O)c3cccc(C4CN(C)Cc5c(Cl)cc(Cl)cc54)c3)c2)C1` (stereo not shown) [Example 181, N1,N4-bis(2-(2-(2-(2-(3-(6,8-dichloro-2-methyl-1,2,3,4-tetrahydroisoquinolin-4-yl)phenylsulfonamido)ethoxy)ethoxy)ethoxy)ethyl)succinamide] displayed an AUC of less than 2 ng·h/mL and a Cmax of less than 2 ng/mL.
On the same counts, the results for `CN1Cc2c(Cl)cc(Cl)cc2C(c2cccc(S(=O)(=O)NCCOCCOCCOCCOCCOCCOCCOCCOCCOCCOCCN)c2)C1` (stereo not shown) [Example 214, N-(32-amino-3,6,9,12,15,18,21,24,27,30-decaoxadotriacontyl)-3-(6,8-dichloro-2-methyl-1,2,3,4-tetrahydroisoquinolin-4-yl)benzenesulfonamide] are less than 5 ng·h/mL and less than 5 ng/mL.
With `CN1Cc2c(Cl)cc(Cl)cc2C(c2cccc(S(=O)(=O)NCCOCCOCCOCCNC(=O)C(=O)NCCOCCOCCOCCNS(=O)(=O)c3cccc(C4CN(C)Cc5c(Cl)cc(Cl)cc54)c3)c2)C1` (stereo not shown) [Example 180, N1,N2-bis(2-(2-(2-(2-(3-(6,8-dichloro-2-methyl-1,2,3,4-tetrahydroisoquinolin-4-yl)phenylsulfonamido)ethoxy)ethoxy)ethoxy)ethyl)oxalamide], in data set [1], the area under the curve (AUC) is less than 19 ng·h/mL and the peak concentration (Cmax) is less than 10 ng/mL.
With `CN1Cc2c(Cl)cc(Cl)cc2C(c2cccc(S(=O)(=O)NCCOCCOCCOCCNS(=O)(=O)c3cccc(S(=O)(=O)NCCOCCOCCOCCNS(=O)(=O)c4cccc(C5CN(C)Cc6c(Cl)cc(Cl)cc65)c4)c3)c2)C1` (stereo not shown) [Example 219, N1,N3-bis(2-(2-(2-(2-(3-(6,8-dichloro-2-methyl-1,2,3,4-tetrahydroisoquinolin-4-yl)phenylsulfonamido)ethoxy)ethoxy)ethoxy)ethyl)benzene-1,3-disulfonamide], at rat NHE-3 (read-out: rat NHE-3 Average pIC50 (converted)), the IC50 is 1 to 10 µM.
For `N=C(N)Nc1nc(-c2cccc(N3CCN(CCC(=O)O)CC3)c2)c2cc(Cl)ccc2n1` [Example 64, 3-(4-(3-(6-chloro-2-(diaminomethyleneamino)quinazolin-4-yl)phenyl)piperazin-1-yl)propanoic acid], the “rat NHE-3 Average pIC50” value at rat NHE-3 was 5 to 6.
In data set [1], `CN1Cc2c(Cl)cc(Cl)cc2[C@@H](c2ccc(S(=O)(=O)NCCOCCOCCOCCNC(=O)C(O)C(O)C(=O)NCCOCCOCCOCCNS(=O)(=O)c3ccc([C@H]4CN(C)Cc5c(Cl)cc(Cl)cc54)cc3)cc2)C1` (single isomer, unassigned) [Example 226, N1,N4-bis(2-(2-(2-(2-(4-((R or S)-6,8-dichloro-2-methyl-1,2,3,4-tetrahydroisoquinolin-4-yl)phenylsulfonamido)ethoxy)ethoxy)ethoxy)ethyl)-2,3-dihydroxysuccinamide] displayed an AUC of less than 5 ng·h/mL and a Cmax of less than 3 ng/mL.
On the same counts, the results for `CN1Cc2c(Cl)cc(Cl)cc2C(c2cccc(S(=O)(=O)NCCOCCOCCNC(=O)[C@H](O)[C@@H](O)C(=O)NCCOCCOCCNS(=O)(=O)c3cccc(C4CN(C)Cc5c(Cl)cc(Cl)cc54)c3)c2)C1` (stereo partly drawn) [Example 218, (2R,3R)—N1,N4-bis(2-(2-(2-(3-(6,8-dichloro-2-methyl-1,2,3,4-tetrahydroisoquinolin-4-yl)phenylsulfonamido)ethoxy)ethoxy)ethyl)-2,3-dihydroxysuccinamide] are less than 1 ng·h/mL and less than 1 ng/mL.
In data set [1], `CN(CC(=O)NCCOCCOCCNS(=O)(=O)c1ccc(C2CN(C)Cc3c(Cl)cc(Cl)cc32)cc1)CC(=O)NCCOCCOCCNS(=O)(=O)c1ccc(C2CN(C)Cc3c(Cl)cc(Cl)cc32)cc1` (stereo not shown) [Example 185, 2,2′-(methylazanediyl)bis(N-(2-(2-(2-(4-(6,8-dichloro-2-methyl-1,2,3,4-tetrahydroisoquinolin-4-yl)phenylsulfonamido)ethoxy)ethoxy)ethyl)acetamide) tris(2,2,2-trifluoroacetate)] returned an AUC of less than 2 ng·h/mL and a Cmax of less than 2 ng/mL.
On the same counts, the results for `CN1Cc2c(Cl)cc(Cl)cc2C(c2cccc(S(=O)(=O)NCCOCCOCCOCCNC(=O)C(O)C(O)C(=O)NCCOCCOCCOCCNS(=O)(=O)c3cccc(C4CN(C)Cc5c(Cl)cc(Cl)cc54)c3)c2)C1` (stereo not shown) [Example 172, N1,N4-bis(2-(2-(2-(2-(3-(6,8-dichloro-2-methyl-1,2,3,4-tetrahydroisoquinolin-4-yl)phenylsulfonamido)ethoxy)ethoxy)ethoxy)ethyl)-2,3-dihydroxysuccinamide] are less than 2 ng·h/mL and less than 2 ng/mL.
On the same counts, the results for `CN1Cc2c(Cl)cc(Cl)cc2C(c2cccc(S(=O)(=O)NCCNC(=O)C(O)C(O)C(=O)NCCNS(=O)(=O)c3cccc(C4CN(C)Cc5c(Cl)cc(Cl)cc54)c3)c2)C1` (stereo not shown) [Example 169, N1,N4-bis(2-(3-(6,8-dichloro-2-methyl-1,2,3,4-tetrahydroisoquinolin-4-yl)phenylsulfonamido)ethyl)-2,3-dihydroxysuccinamide] are less than 4 ng·h/mL and less than 3.5 ng/mL.
Taken in the same sequence, the figures for `C/C(=C\c1cc(F)c(Oc2ccc(S(=O)(=O)NCCN3CCN(CCNS(=O)(=O)c4ccc(Oc5c(F)cc(/C=C(\C)C(=O)N=C(N)N)cc5F)cc4)CC3)cc2)c(F)c1)C(=O)N=C(N)N` [Example 50, N,N′-(2,2′-(piperazine-1,4-diyl)bis(ethane-2,1-diyl))di-((E)-N-(diaminomethylene)-3-(3,5-difluoro-4-(4-sulfamoylphenoxy)phenyl)-2-methylacrylamide)] were 242 ng·h/mL and 93 ng/mL.
As for `CN1Cc2c(Cl)cc(Cl)cc2C(c2cccc(NC(=O)NCCOCCOCCOCCNC(=O)C(O)C(O)C(=O)NCCOCCOCCOCCNC(=O)Nc3cccc(C4CN(C)Cc5c(Cl)cc(Cl)cc54)c3)c2)C1` (stereo not shown) [Example 174, N1,N4-bis(1-(3-(6,8-dichloro-2-methyl-1,2,3,4-tetrahydroisoquinolin-4-yl)phenylamino)-1-oxo-5,8,11-trioxa-2-azatridecan-13-yl)-2,3-dihydroxysuccinamide], in data set [1], the AUC is less than 5 ng·h/mL and the peak concentration (Cmax) is less than 5.4 ng/mL.
On to `CN1Cc2c(Cl)cc(Cl)cc2[C@H](c2cccc(S(=O)(=O)NCCOCCOCCOCCNC(=O)Nc3ccc(NC(=O)NCCOCCOCCOCCNS(=O)(=O)c4cccc([C@@H]5CN(C)Cc6c(Cl)cc(Cl)cc65)c4)cc3)c2)C1` (single isomer, unassigned) [Example 245, (S or R)—N,N′-(1,1′-(1,4-phenylenebis(azanediyl))bis(1-oxo-5,8,1-trioxa-2-azatridecane-13,1-diyl))bis(3-((S or R)-6,8-dichloro-2-methyl-1,2,3,4-tetrahydroisoquinolin-4-yl)benzenesulfonamide)], for which, in data set [1], the AUC is less than 2 ng·h/mL and the highest concentration (Cmax) is less than 2 ng/mL.
On the same counts, the results for `CN1Cc2c(Cl)cc(Cl)cc2C(c2cccc(NC(=O)CCOCCOCCOCCNC(=O)[C@H](O)[C@@H](O)C(=O)NCCOCCOCCOCCC(=O)Nc3cccc(C4CN(C)Cc5c(Cl)cc(Cl)cc54)c3)c2)C1` (stereo partly drawn) [Example 179, (2R,3R)—N1,N4-bis(2-(2-(2-(3-(3-(6,8-dichloro-2-methyl-1,2,3,4-tetrahydroisoquinolin-4-yl)phenylamino)-3-oxopropoxy)ethoxy)ethoxy)ethyl)-2,3-dihydroxysuccinamide] are less than 35 ng·h/mL and less than 16 ng/mL.
With `CN1Cc2c(Cl)cc(Cl)cc2C(c2cccc(S(=O)(=O)NCCOCCOCCNC(=O)NCCOCCOCCNS(=O)(=O)c3cccc(C4CN(C)Cc5c(Cl)cc(Cl)cc54)c3)c2)C1` (stereo not shown) [Example 235, N,N′-(10-oxo-3,6,14,17-tetraoxa-9,11-diazanonadecane-1,19-diyl)bis(3-(6,8-dichloro-2-methyl-1,2,3,4-tetrahydroisoquinolin-4-yl)benzenesulfonamide)], in data set [1], the AUC is less than 5 ng·h/mL and the Cmax is less than 5 ng/mL.
On the same counts, the results for `CN1Cc2c(Cl)cc(Cl)cc2C(c2ccc(S(=O)(=O)NCCOCCOCCNC(=O)c3cc(N)cc(C(=O)NCCOCCOCCNS(=O)(=O)c4ccc(C5CN(C)Cc6c(Cl)cc(Cl)cc65)cc4)c3)cc2)C1.O=C(O)C(F)(F)F.O=C(O)C(F)(F)F.O=C(O)C(F)(F)F` (stereo not shown) [Example 186, 5-amino-N1,N3-bis(2-(2-(2-(4-(6,8-dichloro-2-methyl-1,2,3,4-tetrahydroisoquinolin-4-yl)phenylsulfonamido)ethoxy)ethoxy)ethyl)isophthalamide tris(2,2,2-trifluoroacetate)] are less than 5 ng·h/mL and less than 3.4 ng/mL.

The record behind these values is patent US20190374533A1, “COMPOUNDS AND METHODS FOR INHIBITING NHE-MEDIATED ANTIPORT IN THE TREATMENT OF DISORDERS ASSOCIATED WITH FLUID RETENTION OR SALT OVERLOAD AND GASTROINTESTINAL TRACT DISORDERS” (Ardelyx, Inc., priority 2008, published 2019).
